According to patent publication US20080280906A1, “Imidazolyl-Pyrimidine Compounds for Use in the Treatment of Proliferative Disorders” (priority 2005, published 2008):

Molecular target: T1, CDK2/Cyclin E (Homo sapiens, UniProt P24941)
T1 construct: The open reading frames of CDK2 and Cyclin E were isolated by reverse transcriptase-PCR; made in house; host or cells: SF21 (Spodoptera frugiperda) insect cells, baculovirus co-infection
Assay: in vitro kinase assay, Scintillation Proximity Assay (SPA), [γ-33-P]-ATP incorporation into GST-Rb
Type: biochemical
Conditions: GST-Rb substrate, 0.2 μM ATP, 60 minutes room temperature, read-out: CDK2 inhibitory activity IC50
Experimental: The compounds were tested in an in vitro kinase assay in 96 well format using Scintillation Proximity Assay (SPA—obtained from Amersham) for measuring incorporation of [γ-33-P]-Adenosine Triphosphate into a test substrate (GST-Retinoblastoma protein; GST-Rb). In each well was placed the compound to be tested (diluted in DMSO and water to correct concentrations) and in control wells either roscovitine as an inhibitor control or DMSO as a positive control. […]
The plates were sealed with Topseal-S plate sealers, left for two hours then spun at 2500 rpm, 1124×g., for 5 minutes. The plates were read on a Topcount for 30 seconds per well. […]
E. coli paste was resuspended in 10 ml/g of NETN buffer (50 mM Tris pH 7.5, 120 mM NaCl, 1 mM EDTA, 0.5% v/v NP-40, 1 mM PMSF, 1 ug/ml leupeptin, 1 ug/ml aprotinin and 1 ug/ml pepstatin) and sonicated for 2×45 seconds per 100 ml homogenate. […] The final product was analysed by Sodium Dodeca Sulfate (SDS) PAGE (Polyacrylamide gel) using 8-16% Tris-Glycine gels (Novex, San Diego, USA).
The open reading frames of CDK2 and Cyclin E were isolated by reverse transcriptase-PCR using HeLa cell and activated T cell mRNA as a template and cloned into the insect expression vector pVL1393 (obtained from Invitrogen 1995 catalogue number: V1392-20). […]

Work on `Cc1ncc(-c2ccnc(Nc3ccc(C(=O)N4CCOCC4)cc3)n2)n1C(C)C` [Example 14] yielded an IC50 of 3 nM.
